The text below walks through data of article PMC9339560 (Journal of Food and Drug Analysis, 2016).

For assay [1], the target named is butyrylcholinesterase from equine serum (Equus caballus, UniProt P81908). The experiment in a line: Butyrylcholinesterase. The format is biochemical. The conditions noted are these: read-out: % Inhibition at 100 μg/mL (BChE).
The subject of assay [2] is BChE. The note with it: cited from earlier work.
The test system of assay [3] is β-amyloid-induced neurotoxicity. The note with it: mice; cited from earlier work.
Assay [4] has as its system mice with valium-impaired memory. The conditions noted are these: radial arm maze; cited from earlier work.
Assay [5] relates to neuronal cell death caused by oxidative stress. The note with it: cited from earlier work.
The test system of assay [6] is AChE. The conditions noted are these: cited from earlier work.

Sequence of butyrylcholinesterase from equine serum (P81908 whole entry): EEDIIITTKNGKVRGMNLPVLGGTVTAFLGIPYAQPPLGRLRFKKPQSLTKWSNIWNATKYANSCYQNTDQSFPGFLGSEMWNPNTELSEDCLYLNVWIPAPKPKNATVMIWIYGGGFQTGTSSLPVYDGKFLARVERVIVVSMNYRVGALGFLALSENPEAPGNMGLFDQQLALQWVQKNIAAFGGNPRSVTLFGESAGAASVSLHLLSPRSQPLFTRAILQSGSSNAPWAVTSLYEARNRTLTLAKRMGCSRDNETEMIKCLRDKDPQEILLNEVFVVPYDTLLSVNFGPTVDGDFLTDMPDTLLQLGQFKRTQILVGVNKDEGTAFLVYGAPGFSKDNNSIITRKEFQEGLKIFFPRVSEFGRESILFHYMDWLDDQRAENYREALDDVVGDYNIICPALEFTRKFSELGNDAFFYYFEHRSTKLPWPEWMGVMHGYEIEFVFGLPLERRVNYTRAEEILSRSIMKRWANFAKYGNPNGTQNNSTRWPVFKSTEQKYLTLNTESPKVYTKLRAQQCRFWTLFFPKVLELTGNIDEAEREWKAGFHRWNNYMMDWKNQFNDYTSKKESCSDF

Turning to `O=c1c(O[C@@H]2O[C@H](CO)[C@@H](O)[C@H](O)[C@H]2O)c(-c2ccc(O)cc2)oc2cc(O)cc(O)c12` [Compound 13, kaempferol 3-O-β-glucopyranoside], the inhibition at 100 µg/mL in assay [1] worked out at 7.45 ± 0.72%.

As for `C/C=C(\CC[C@@H](C)[C@H]1CC[C@H]2[C@@H]3CC=C4C[C@@H](O)CC[C@]4(C)[C@H]3CC[C@]12C)C(C)C` [Fucosterol, fucosterol], the BChE inhibitory activity entry in assay [2] is on record as “weak BChE inhibitory activity”.

Turning to `CNC(=O)Oc1ccc2c(c1)[C@]1(C)CCN(C)[C@@H]1N2C` [Physostigmine, physostigmine, reference compound], the inhibition at 100 µg/mL in assay [1] was found to be 94.94 ± 0.04%.

On to `COc1cc(/C=C/C(=O)O)ccc1O` [ferulic acid], for which the β-amyloid-induced neurotoxicity entry in assay [3] is recorded as “attenuate”.

On to `O=c1c(O)c(-c2ccc(O)cc2)oc2cc(O)cc(O)c12` [kaempferol], for which the “spatial learning and memory” value in assay [4] is reported as “significantly improved”.

For `O=C(O)/C=C/c1ccc(O)cc1` [p-coumaric, p-coumaric acid], the β-amyloid-induced neurotoxicity entry in assay [3] is recorded as “attenuate”.

Take `Cc1c(C)c2c(c(C)c1O)CC[C@@](C)(CCC[C@H](C)CCC[C@H](C)CCCC(C)C)O2` [α-Tocopherol, α-tocopherol]: the “protection against neuronal cell death caused by oxidative stress” value in assay [5] is “protective effects”.

Consider `CC[C@H](CC[C@@H](C)[C@H]1CC[C@H]2[C@@H]3CC=C4C[C@@H](O)CC[C@]4(C)[C@H]3CC[C@]12C)C(C)C` [β-sitosterol], for which, in assay [6], the “inhibitory effect on AChE” value is “no appreciable inhibitory effect”. Besides, the “inhibitory effect on BChE” value in assay [2] is on record as “no appreciable inhibitory effect”.
